Assay [1] addresses T1, hNR2B (Homo sapiens, UniProt Q13224).
T1 construct: expressed in transfected cells; host or cells: Xenopus laevis oocytes, cRNA-injected
Put plainly: Electrophysiology NMDA receptor experiments: two electrode voltage-clamp in Xenopus laevis oocytes, hNR2B IC50. In kind it is cell-based. The settings on record: hNR2B activity class, 50 μM glutamate, 30 μM glycine. A general note: In two-electrode clamp one electrode senses voltage and the other passes current.
Description: (§1) Stage V and VI oocytes were surgically removed from the ovaries of large, well-fed and healthy Xenopus laevis anesthetized with 3-amino-benzoic acid ethyl ester (3 gm/l). […] Oocytes were then washed in the same solution supplemented with 1.8 mM CaCl2 and maintained in Barth's solution comprised of (in mM): 88 NaCl, 1 KCl, 2.4 NaHCO3, 10 HEPES, 0.82 MgSO4, 0.33 Ca(NO3)2, and 0.91 CaCl2 and supplemented with 100 μg/ml gentamycin, 10 μg/ml streptomycin, and 10 μg/ml penicillin.
(§2) Two electrode voltage-clamp recordings were made 2-7 days post-injection. Oocytes were placed in a dual-track plexiglass recording chamber with a single perfusion line that splits in a Y-configuration to perfuse two oocytes. Dual recordings were made at room temperature (23° C.) using two Warner OC725B two-electrode voltage clamp amplifiers, arranged as recommended by the manufacturer. Glass microelectrodes (1-10 Megaohms) were filled with 300 mM KCl (voltage electrode) or 3 M KCl (current electrode). The bath clamps communicated across silver chloride wires placed into each side of the recording chamber, both of which were assumed to be at a reference potential of 0 mV. Oocytes were perfused with a solution comprised of (in mM) 90 NaCl, 1 KCl, 10 HEPES, 10 EDTA and 0.5 BaCl2; pH 7.4, adjusted by addition of NaOH. Oocytes were recorded under voltage clamp at −40 mV. Final concentrations for glutamate and glycine were 50 μM and 30 μM, respectively. […] Dose response curves consisting of four to eight concentrations were obtained in this manner. The baseline leak current at −40 mV was measured before and after recording, and the full recording linearly corrected for any change in leak current. The level of inhibition by applied experimental compounds was expressed as a percent of the initial glutamate response, and averaged together across oocytes from multiple experiments.
(§3) For NMDA receptor subtype selectivity experiments human GluN1/GluN2A, GluN1/GluN2C, and GluN1/GluN2D cRNAs were expressed in Xenopus laevis as described above. Here, 10 μM concentrations of the antagonist was perfused with 50 μM glutamate and 30 μM glycine onto the oocyte for two min and the remaining current in the presence of the antagonist was compared to the maximal current obtained with 50 μM glutamate and 30 μM glycine alone (defined as 100%). When IC50 determinations were made against other NMDA receptor subtypes the protocol as described above was followed.

Assay [2] has as its target T2, hNR2B (Homo sapiens, UniProt Q05586+Q13224).
T2 construct: expressed in transfected cells; host or cells: Xenopus laevis oocytes, cRNA-injected
The assay is described as above. In kind it is cell-based. The note with it: 50 μM glutamate, 30 μM glycine.
Description: as §1, §2, §3

Where [3] appears, read: hNR2B activity class, read-out: Activity.
Setting [4] is: voltage clamp -40 mV, read-out: hNR2B IC50.

Read-outs that look alike come from different tables or passages of the source. A value given as a limit tells only on which side of the number the result lay.

T2 sequence (Q13224 27-1484, other chains not shown): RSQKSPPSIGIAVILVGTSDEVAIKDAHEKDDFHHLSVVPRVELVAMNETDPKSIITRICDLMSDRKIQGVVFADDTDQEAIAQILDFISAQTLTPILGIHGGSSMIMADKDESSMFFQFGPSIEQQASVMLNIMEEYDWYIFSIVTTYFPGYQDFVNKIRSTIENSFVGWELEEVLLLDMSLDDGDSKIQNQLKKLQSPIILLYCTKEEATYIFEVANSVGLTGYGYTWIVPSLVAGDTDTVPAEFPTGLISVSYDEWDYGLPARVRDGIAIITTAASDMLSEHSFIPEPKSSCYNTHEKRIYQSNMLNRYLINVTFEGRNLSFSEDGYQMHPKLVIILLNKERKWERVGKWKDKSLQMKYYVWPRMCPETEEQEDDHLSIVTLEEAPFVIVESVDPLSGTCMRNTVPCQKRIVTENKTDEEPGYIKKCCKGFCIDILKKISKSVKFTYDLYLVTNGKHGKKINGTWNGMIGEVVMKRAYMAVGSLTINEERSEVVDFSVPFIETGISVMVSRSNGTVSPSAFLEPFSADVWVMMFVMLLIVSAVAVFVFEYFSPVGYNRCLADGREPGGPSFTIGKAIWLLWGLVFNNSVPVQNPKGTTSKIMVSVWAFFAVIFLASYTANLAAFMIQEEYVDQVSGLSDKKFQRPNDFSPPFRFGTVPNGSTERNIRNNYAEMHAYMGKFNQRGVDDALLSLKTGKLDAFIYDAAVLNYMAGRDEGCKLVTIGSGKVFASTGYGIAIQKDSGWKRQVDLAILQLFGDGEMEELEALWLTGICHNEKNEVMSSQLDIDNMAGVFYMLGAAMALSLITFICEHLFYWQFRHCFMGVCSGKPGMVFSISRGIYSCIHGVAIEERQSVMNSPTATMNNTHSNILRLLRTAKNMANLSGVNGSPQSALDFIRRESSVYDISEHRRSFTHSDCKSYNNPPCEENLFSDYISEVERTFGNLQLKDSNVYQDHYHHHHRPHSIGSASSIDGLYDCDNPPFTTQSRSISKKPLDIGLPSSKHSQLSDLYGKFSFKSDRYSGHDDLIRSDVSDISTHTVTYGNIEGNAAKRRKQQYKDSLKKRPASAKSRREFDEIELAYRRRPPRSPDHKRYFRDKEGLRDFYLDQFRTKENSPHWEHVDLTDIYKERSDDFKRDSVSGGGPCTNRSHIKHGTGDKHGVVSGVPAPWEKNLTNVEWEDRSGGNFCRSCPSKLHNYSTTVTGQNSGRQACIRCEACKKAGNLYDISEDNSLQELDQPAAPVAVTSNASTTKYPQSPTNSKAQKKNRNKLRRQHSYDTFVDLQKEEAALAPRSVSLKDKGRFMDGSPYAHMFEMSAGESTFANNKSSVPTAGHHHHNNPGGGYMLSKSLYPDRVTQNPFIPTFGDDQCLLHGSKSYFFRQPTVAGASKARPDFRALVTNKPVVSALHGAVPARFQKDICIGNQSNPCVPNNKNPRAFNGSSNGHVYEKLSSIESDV
T1 sequence (Q13224 27-1484, other chains not shown): as above

As for `CC(Oc1ccc2[nH]c(=O)ccc2c1)c1nnc(Nc2ccc(Cl)c(Cl)c2)o1` (single isomer, unassigned) [Example 110], the IC50 against hNR2B [1] was less than 0.2 µM.

For the compound `CCn1c(COc2ccc3[nH]c(=O)ccc3c2)nnc1Nc1ccc(OC(F)F)cc1` [Example 281], the IC50 at hNR2B [2] (setting [3]) is less than 0.2 µM.

For the compound `O=c1ccc2cc(OCc3nnc(Nc4ccc(Cl)cc4)[nH]3)ccc2[nH]1` [Example 282], on hNR2B [2] (setting [4]), the IC50 is 0.29 µM. As to `O=C1CCc2cc(OCc3nnc(Nc4ccc(Cl)cc4)[nH]3)ccc2N1` [Example 283], the IC50 at hNR2B [2] (setting [3]) was in the range of 0.201 to 1 µM. Regarding `O=C1CCc2cc(OCc3nnc(Cc4ccc(Cl)c(Cl)c4)[nH]3)ccc2N1` [Example 284, 6-((5-(3,4-dichlorobenzyl)-4H-1,2,4-triazol-3-yl)methoxy)-3,4-dihydroquinolin-2(1H)-one], the IC50 at hNR2B [2] (setting [4]) turned out to be 20 µM.

Regarding `O=c1ccc2cc(OCc3nnc(Cc4ccc(Cl)c(Cl)c4)[nH]3)ccc2[nH]1` [Example 285, 6-((5-(3,4-dichlorobenzyl)-4H-1,2,4-triazol-3-yl)methoxy)quinolin-2(1H)-one], the IC50 on hNR2B [2] (setting [4]) was found to be 5 µM. `O=C1CCc2cc(OCc3nnc(-c4ccc(Cl)cc4)[nH]3)ccc2N1` [Example 286, 6-((5-(4-chlorophenyl)-4H-1,2,4-triazol-3-yl)methoxy)-3,4-dihydroquinolin-2(1H)-one]: the IC50 on hNR2B [2] (setting [4]) was found to be 3 µM.

`O=C1CCc2cc(OCc3nc(Cc4ccc(Cl)cc4)no3)ccc2N1` [Example 287, 6-((3-(4-chlorobenzyl)-1,2,4-oxadiazol-5-yl)methoxy)-3,4-dihydroquinolin-2(1H)-one]: the IC50 at hNR2B [2] (setting [4]) is 3.8 µM.

Regarding `O=C1CCc2cc(OCCCc3noc(-c4ccc(Cl)cc4)n3)ccc2N1` [Example 288, 6-(3-(5-(4-chlorophenyl)-1,2,4-oxadiazol-3-yl)propoxy)-3,4-dihydroquinolin-2(1H)-one], the IC50 on hNR2B [2] (setting [4]) is more than 10 µM.

For `O=c1ccc2cc(OCc3nnc(Cc4ccc(Cl)c(Cl)c4)o3)ccc2[nH]1` [Example 289, 6-((5-(3,4-dichlorobenzyl)-1,3,4-oxadiazol-2-yl)methoxy)quinolin-2(1H)-one], at hNR2B [2] (setting [4]), the IC50 amounted to 2.4 µM.

With `O=C1CCc2cc(OCc3nnc(C(O)c4ccc(Cl)c(Cl)c4)o3)ccc2N1` (stereo not drawn) [Example 290, 6-((5-((3,4-dichlorophenyl)(hydroxy)methyl)-1,3,4-oxadiazol-2-yl)methoxy)-3,4-dihydroquinolin-2(1H)-one], the IC50 on hNR2B [2] (setting [4]) was 4.8 µM.

As to `O=C1CCc2cc(OCCNc3nnc(-c4ccc(C(F)(F)F)cc4)o3)ccc2N1` [Example 291, 6-(2-(5-(4-(trifluoromethyl)phenyl)-1,3,4-oxadiazol-2-ylamino)ethoxy)-3,4-dihydroquinolin-2(1H)-one], the IC50 on hNR2B [2] (setting [4]) was found to be 1.2 µM.

These data come from patent US8722670B2, “Selective NR2B antagonists” (Bristol-Myers Squibb Company, priority 2011, dated 2014).
